2 compounds from publication PMC5458211, “Mitochondrial VDAC1-based peptides: Attacking oncogenic properties in glioblastoma” (Oncotarget, 2017) can be followed below.

What all share (format): cell-based, human
The subject of experiment [1] is HK-I-GFP. The experiment is described as follows: HK-I-GFP detachment from mitochondria by confocal microscopy, U-87MG. To be noted: 7 μM, 3 h, serum-free medium. How it is done: (§1) Figure 2 Mode of action of VDAC1-based peptides – interacting with- and detaching HK, releasing Cyto c, decreasing ATP level and inducing apoptosis A. Purified HK-II was fluorescently labeled using the NanoTemper protein-labeling Kit BLUE. […] Then, 3-5 μl of the samples were loaded into MST-grade glass capillaries and thermophoresis was measured using a Monolith-NT115 apparatus, as described in Materials and methods available online in Supplemental information. […] The final DMSO concentration in control and peptide-treated cells was 0.07%. Fixed cells were visualized using confocal microscopy (Olympus 1×81), as described in Materials and Methods available online in Supplemental information. […] The levels of HK in the supernatants were quantified and are presented as relative units. D. D-ΔN-Ter-Antp induces mitochondrial inner membrane depolarization analyzed as described in Materials and Methods available online in Supplemental information. […] Cells then were analyzed for Δψ using TMRM. Δψ is presented as percentage of control. […] Release of Cyto c from the mitochondria was analyzed by immunostaining using anti-Cyto c antibodies and confocal microscopy (Olympus 1×81) as described in Materials and Methods available online in Supplemental information. […] Quantification of apoptosis in control and peptide's treated cells are presented bellow the images. […]

For experiment [2], the system named is Cyto c release in U-87MG cells. The experiment is described as follows: Cytochrome c release by immunofluorescence. To be noted: 10 μM, 3 h, serum-free medium. The method, then: as §1
Experiment [3] relates to HK-I-GFP. Kind of experiment: HK-I-GFP detachment from mitochondria by confocal microscopy, SH-SY5Y. The following applies: 7 μM, 3 h, serum-free medium, Suppl Fig 2A. How it is done:
Mitochondrial VDAC1-based peptides: Attacking oncogenic properties in glioblastoma […]
Cell culture cells were fixed for 15 min using 4% paraformaldehyde prepared in PBS, rinsed with PBS, permabilized with 0.3%
Human glioblastoma U-87MG, U-118MG, CRL- PBST, and stained with DAPI (1:2000). Cell imaging was 2610 (LN-18), U-251MG, human neuroblastoma SH- carried out by confocal microscopy (Olympus 1X81).
SY5Y, mouse glioma GL-261 and mouse neuroblastoma […]
Cellular ATP levels were estimated using a luciferase-based assay (CellTiter-Glo, Promega). […] ATP levels were cytosol was analyzed by immunoblotting. […]
luminescence was recorded using an Infinite M1000 plate peptide (3, 5, 10 μM for 3h), harvested, washed with reader (Tecan, Männedorf, Switzerland). […]
ﬂuoride) containing 0.02% digitonin and incubated for Mitochondrial membrane potential (ΔΨ) was 10 min on ice. Samples were centrifuged at 12,000xg at determined using tetramethylrhodamine methylester 4°C for 10 min to obtain supernatants (cytosolic extracts (TMRM) dye. U-87MG cells (6×10^5/ml) were incubated free of mitochondria) that were analyzed by SDS-PAGE with the indicated concentrations of D-ΔN-Ter-Antp and immuno-probed using anti-hexokinase antibodies, peptide for 3 h, washed twice with PBS, incubated with and then with secondary HRP-conjugated anti-rabbit tetramethylrhodamine methyl ester (TMRM, 800 nM, antibodies. […]

Non-standard residues stand in square brackets, D forms with d. Residues, ends and D or L forms follow the SMILES beside them.

In the case of `CC[C@@H](C)[C@@H](NC(=O)[C@@H](CCCCN)NC(=O)[C@H](NC(=O)[C@@H](CCC(N)=O)NC(=O)[C@@H](CCCNC(=N)N)NC(=O)[C@@H](CC(C)C)NC(=O)CNC(=O)[C@@H](Cc1ccccc1)NC(=O)CNC(=O)[C@@H](Cc1ccc(O)cc1)NC(=O)CNC(=O)[C@@H](CCCCN)NC(=O)[C@H](NC(=O)[C@@H](Cc1ccccc1)NC(=O)[C@H](NC(=O)[C@@H](CC(=O)O)NC(=O)[C@H](N)CCCNC(=N)N)C(C)C)[C@H](C)O)[C@H](C)CC)C(=O)N[C@H](Cc1c[nH]c2ccccc12)C(=O)N[C@H](Cc1ccccc1)C(=O)N[C@H](CCC(N)=O)C(=O)N[C@H](CC(N)=O)C(=O)N[C@H](CCCNC(=N)N)C(=O)N[C@H](CCCNC(=N)N)C(=O)N[C@H](CCSC)C(=O)N[C@H](CCCCN)C(=O)N[C@H](Cc1c[nH]c2ccccc12)C(=O)N[C@H](CCCCN)C(=O)N[C@H](CCCCN)C(=O)O` [D-ΔN-Ter-Antp] (H-[dR][dD][dV][dF][dT][dK]G[dY]G[dF]G[dL][dR][dQ][dI][dK][dI][dW][dF][dQ][dN][dR][dR][dM][dK][dW][dK][dK]-OH; N-terminus and C-terminus assumed), the “HK-I-GFP detachment (fluorescence distribution)” value in experiment [1] and in experiment [3] was “became diffuse” in each case. For the same compound, the Cyto c release result in experiment [2] is listed as “partial Cyto c release”.
As for `CC[C@H](C)[C@H](NC(=O)[C@H](C)NC(=O)[C@@H](N)Cc1c[nH]cn1)C(=O)N[C@@H](Cc1ccc(O)cc1)C(=O)N1CCC[C@H]1C(=O)N[C@@H](CCCNC(=N)N)C(=O)N[C@@H](Cc1c[nH]cn1)C(=O)N[C@@H](CO)C(=O)N[C@@H](Cc1c[nH]c2ccccc12)C(=O)N[C@H](C(=O)N[C@@H](Cc1c[nH]c2ccccc12)C(=O)N[C@@H](CCC(=O)O)C(=O)N[C@H](CCCCN)C(=O)N[C@H](CCCCN)C(=O)N[C@H](CC(C)C)C(=O)N[C@H](CCC(=O)O)C(=O)N[C@@H](C(=O)N[C@H](C)C(=O)N[C@@H](C(=O)N[C@H](CC(N)=O)C(=O)N[C@H](CC(C)C)C(=O)N[C@H](C)C(=O)N[C@H](Cc1c[nH]c2ccccc12)C(=O)N[C@@H](C(=O)N[C@H](C)C(=O)NCC(=O)N[C@H](CC(N)=O)C(=O)N[C@H](CO)C(=O)N[C@H](CC(N)=O)C(=O)N[C@@H](CCCCN)C(=O)N[C@@H](Cc1c[nH]c2ccccc12)C(=O)N[C@H](C(=O)N[C@@H](Cc1c[nH]c2ccccc12)C(=O)N[C@@H](CCCCN)C(=O)O)[C@@H](C)O)[C@H](C)O)C(C)C)[C@H](C)O)[C@@H](C)O` [Tf-D-LP4], the “HK-I-GFP detachment (fluorescence distribution)” value in experiment [1] and in experiment [3] was “became diffuse” in each case. The Cyto c release entry in experiment [2] was “partial Cyto c release”.
